# Results as given in patent publication US20100267725A1, “Compounds, Compositions and Methods Comprising 4N-Substituted Triazole Derivatives” (Institute for OneWorld Health, priority 2009, published 2010).
# Target: T1, CFTR channel (Homo sapiens, UniProt P13569)
# T1 construct: host or cells: Human colonic T84 cells
# Test: T84 assay (FLIPR membrane potential dye, forskolin/IBMX-stimulated CFTR channel activity)
# Format: cell-based
# Settings: Human colonic T84 cells; CFTR stimulated with 10 μM forskolin + 100 μM IBMX
# Method: (§1) For example, Human colonic T84 cells can be acquired from the European Collection of Cell Cultures (ECACC) and grown in standard culture conditions as described by the supplier. On the day before assay 25,000 T84 cells per well are plated into standard black walled, clear bottom 384-well assay plates in standard growth medium consisting of DMEM:F12 with 10% FBS and incubated overnight. On the day of the assay the plates are washed using a standard assay buffer (HBSS with 10 mM Hepes) and incubated for 15 minutes in serum free cell culture medium before the addition of a commercially available membrane potential sensitive fluorescent dye (FLIPR Red membrane potential dye, Molecular Devices Corporation). T84 cells are incubated with the FLIPR Red membrane potential dye for 45 minutes in the presence and absence of test compound before being transferred to a commercially available fluorescence imaging plate reader (FLIPR384, Molecular Devices Corporation). Fluorescence levels are monitored continuously every second for 150 seconds; after an initial 10 second baseline, CFTR channel activity is stimulated through the addition of 10 μM forskolin in the presence of 100 μM of the phosphodiesterase inhibitor iso-butyl-methylxanthine (IBMX). Addition of the forskolin leads to the activation of intracellular adenylyl cylase 1, elevating cAMP levels and results in the phosphorylation and opening of CFTR anion channels. CFTR channel opening causes chloride ion efflux and subsequent depolarization of the cells, which is measured by an increase in fluorescence. CFTR inhibitor compounds prevent cell depolarization and the associated increase in fluorescence.
# as §1, with “Human colonic” for “For example, Human colonic”, “T84 cells are acquired from” for “T84 cells can be acquired from”, “(ECACC) and are grown in” for “(ECACC) and grown in”
# T1 sequence (P13569 whole entry): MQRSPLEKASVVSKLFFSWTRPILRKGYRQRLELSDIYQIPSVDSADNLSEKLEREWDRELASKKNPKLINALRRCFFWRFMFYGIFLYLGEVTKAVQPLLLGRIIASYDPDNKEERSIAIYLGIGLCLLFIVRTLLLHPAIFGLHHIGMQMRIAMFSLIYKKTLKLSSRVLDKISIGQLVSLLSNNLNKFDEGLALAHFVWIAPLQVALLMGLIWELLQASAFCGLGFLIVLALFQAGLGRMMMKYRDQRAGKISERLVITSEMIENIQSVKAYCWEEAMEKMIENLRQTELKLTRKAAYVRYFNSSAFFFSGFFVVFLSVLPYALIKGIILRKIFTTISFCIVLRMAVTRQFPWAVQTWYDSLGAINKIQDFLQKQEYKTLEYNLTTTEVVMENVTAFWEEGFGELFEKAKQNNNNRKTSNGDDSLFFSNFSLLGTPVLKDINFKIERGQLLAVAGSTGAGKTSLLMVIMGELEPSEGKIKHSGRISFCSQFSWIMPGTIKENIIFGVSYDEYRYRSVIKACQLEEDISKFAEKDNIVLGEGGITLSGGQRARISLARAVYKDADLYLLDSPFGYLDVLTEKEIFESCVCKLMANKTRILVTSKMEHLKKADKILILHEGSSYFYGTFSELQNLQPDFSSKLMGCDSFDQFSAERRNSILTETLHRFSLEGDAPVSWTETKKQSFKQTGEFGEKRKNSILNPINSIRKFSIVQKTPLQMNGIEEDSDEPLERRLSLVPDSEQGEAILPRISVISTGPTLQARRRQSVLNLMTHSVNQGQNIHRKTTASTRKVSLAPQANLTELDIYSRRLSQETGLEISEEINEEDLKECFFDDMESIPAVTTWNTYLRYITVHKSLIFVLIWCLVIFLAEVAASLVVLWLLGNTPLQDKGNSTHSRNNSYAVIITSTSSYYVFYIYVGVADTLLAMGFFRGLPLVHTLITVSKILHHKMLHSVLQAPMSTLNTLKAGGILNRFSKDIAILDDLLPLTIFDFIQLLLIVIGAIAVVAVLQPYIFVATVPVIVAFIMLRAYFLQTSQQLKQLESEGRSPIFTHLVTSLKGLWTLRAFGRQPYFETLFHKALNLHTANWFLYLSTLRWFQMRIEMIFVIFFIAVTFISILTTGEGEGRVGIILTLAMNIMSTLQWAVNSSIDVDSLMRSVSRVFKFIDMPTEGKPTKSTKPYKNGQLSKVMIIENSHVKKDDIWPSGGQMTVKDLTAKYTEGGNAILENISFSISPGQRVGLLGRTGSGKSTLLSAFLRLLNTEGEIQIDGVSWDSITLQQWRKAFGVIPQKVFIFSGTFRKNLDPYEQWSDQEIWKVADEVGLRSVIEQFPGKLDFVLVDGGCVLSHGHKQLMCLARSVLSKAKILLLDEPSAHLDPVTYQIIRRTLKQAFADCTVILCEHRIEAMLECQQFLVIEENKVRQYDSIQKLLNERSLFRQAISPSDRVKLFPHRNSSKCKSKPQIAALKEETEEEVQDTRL
row,SMILES,IC50 [µM]
1,"O=C(NCc1ccc(Oc2ccccc2)cc1)c1nnc(-c2cc(Cl)c(O)c(Cl)c2)n1Cc1ccccc1 [Compound 1, 4-benzyl-5-(3,5-dichloro-4-hydroxyphenyl)-N-(4-phenoxybenzyl)-4H-1,2,4-triazole-3-carboxamide]",7.14
2,"CN(C)c1cccc(Cn2c(C(=O)NCc3ccc(Oc4ccccc4)cc3)nnc2-c2cc(Cl)c(O)c(Cl)c2)c1 [Compound 2, 5-(3,5-dichloro-4-hydroxyphenyl)-4-(3-(dimethylamino)benzyl)-N-(4-phenoxybenzyl)-4H-1,2,4-triazole-3-carboxamide]",6.69
3,"O=C(NCc1ccc(Oc2ccccc2)cc1)c1nnc(-c2cc(Cl)c(O)c(Cl)c2)n1Cc1cccnc1 [Compound 3, 5-(3,5-Dichloro-4-hydroxyphenyl)-N-(4-phenoxybenzyl)-4-(pyridin-3-ylmethyl)-4H-1,2,4-triazole-3-carboxamide]",7.18

# Now from value to compound:
row,IC50 [µM],SMILES
1,12.9,"O=C(NCc1ccc(Oc2ccccc2)cc1)c1nnc(-c2cc(Cl)c(O)c(Cl)c2)n1Cc1ccccn1 [Compound 4, 5-(3,5-dichloro-4-hydroxyphenyl)-N-(4-phenoxybenzyl)-4-(pyridin-2-ylmethyl)-4H-1,2,4-triazole-3-carboxamide]"
2,7.74,"COc1ccc(-n2c(C(=O)NCc3ccc(Oc4ccccc4)cc3)nnc2-c2cc(Cl)c(O)c(Cl)c2)cn1 [Compound 5, 5-(3,5-dichloro-4-hydroxyphenyl)-4-(6-methoxypyridin-3-yl)-N-(4-phenoxybenzyl)-4H-1,2,4-triazole-3-carboxamide]"
3,12.8,"O=C(NCc1ccc(Oc2ccccc2)cc1)c1nnc(-c2cc(Cl)c(O)c(Cl)c2)n1Cc1ccc(CN2CCOCC2)cc1 [Compound 6, 5-(3,5-dichloro-4-hydroxyphenyl)-4-(4-(morpholinomethyl)benzyl)-N-(4-phenoxybenzyl)-4H-1,2,4-triazole-3-carboxamide]"
